Experiments:
Assay type in all cases: cell-based
human TLR8 = biological target: T1, human TLR8 (Homo sapiens, UniProt Q9NR97); experiment: TLR8 inhibition reporter assay (HEK-Blue cells, SEAP reporter, R848 stimulation); details: HEK-Blue cells overexpressing human TLR8, SEAP reporter, R848 15.9 μM; read-out: TLR8 IC50
T1 construct: host or cells: HEK-Blue cells
T1 sequence (Q9NR97 27-1041): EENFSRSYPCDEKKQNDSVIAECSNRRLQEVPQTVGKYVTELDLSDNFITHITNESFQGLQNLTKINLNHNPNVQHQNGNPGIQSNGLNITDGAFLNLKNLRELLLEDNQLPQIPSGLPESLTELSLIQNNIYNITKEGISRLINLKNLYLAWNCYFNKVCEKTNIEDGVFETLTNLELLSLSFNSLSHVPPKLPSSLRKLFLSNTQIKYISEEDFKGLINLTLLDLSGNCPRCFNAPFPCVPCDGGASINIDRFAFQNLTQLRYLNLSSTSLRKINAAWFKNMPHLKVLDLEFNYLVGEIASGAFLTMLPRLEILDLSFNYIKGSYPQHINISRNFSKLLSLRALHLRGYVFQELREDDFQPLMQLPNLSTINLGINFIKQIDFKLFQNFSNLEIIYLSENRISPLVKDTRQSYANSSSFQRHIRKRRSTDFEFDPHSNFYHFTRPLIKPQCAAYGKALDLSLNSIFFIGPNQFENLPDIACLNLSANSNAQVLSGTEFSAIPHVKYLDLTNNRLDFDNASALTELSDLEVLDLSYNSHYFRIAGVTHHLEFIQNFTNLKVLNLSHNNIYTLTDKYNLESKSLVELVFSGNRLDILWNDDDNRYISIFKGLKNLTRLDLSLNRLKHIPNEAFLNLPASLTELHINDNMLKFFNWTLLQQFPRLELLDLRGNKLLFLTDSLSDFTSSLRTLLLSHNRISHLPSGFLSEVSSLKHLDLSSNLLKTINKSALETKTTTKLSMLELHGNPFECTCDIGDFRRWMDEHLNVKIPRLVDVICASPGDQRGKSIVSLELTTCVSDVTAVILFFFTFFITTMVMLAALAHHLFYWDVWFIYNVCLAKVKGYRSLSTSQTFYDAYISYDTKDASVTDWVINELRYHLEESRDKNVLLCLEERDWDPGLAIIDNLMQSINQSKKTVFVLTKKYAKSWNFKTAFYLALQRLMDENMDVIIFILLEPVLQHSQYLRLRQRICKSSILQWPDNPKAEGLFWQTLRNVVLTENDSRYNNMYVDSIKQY
How it was run: (§1)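 Screening used HEK-Blue cells overexpressing one human TLR (7, 8 or 9) and an IFN-β minimal promoter–NF-κB/AP-1 SEAP construct. Stimulation lasted 22 h at 37 °C with receptor-specific agonist: gardiquimod, R848 or ODN2006 at 7.5 μM, 15.9 μM and 5 nM.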

human TLR9 = biological target: T2, human TLR9 (Homo sapiens, UniProt Q9NR96); experiment: TLR9 inhibition reporter assay (HEK-Blue cells, SEAP reporter, ODN2006 stimulation); details: HEK-Blue cells overexpressing human TLR9, SEAP reporter, ODN2006 5 nM
T2 construct: host or cells: HEK-Blue cells
T2 sequence (Q9NR96 26-1032): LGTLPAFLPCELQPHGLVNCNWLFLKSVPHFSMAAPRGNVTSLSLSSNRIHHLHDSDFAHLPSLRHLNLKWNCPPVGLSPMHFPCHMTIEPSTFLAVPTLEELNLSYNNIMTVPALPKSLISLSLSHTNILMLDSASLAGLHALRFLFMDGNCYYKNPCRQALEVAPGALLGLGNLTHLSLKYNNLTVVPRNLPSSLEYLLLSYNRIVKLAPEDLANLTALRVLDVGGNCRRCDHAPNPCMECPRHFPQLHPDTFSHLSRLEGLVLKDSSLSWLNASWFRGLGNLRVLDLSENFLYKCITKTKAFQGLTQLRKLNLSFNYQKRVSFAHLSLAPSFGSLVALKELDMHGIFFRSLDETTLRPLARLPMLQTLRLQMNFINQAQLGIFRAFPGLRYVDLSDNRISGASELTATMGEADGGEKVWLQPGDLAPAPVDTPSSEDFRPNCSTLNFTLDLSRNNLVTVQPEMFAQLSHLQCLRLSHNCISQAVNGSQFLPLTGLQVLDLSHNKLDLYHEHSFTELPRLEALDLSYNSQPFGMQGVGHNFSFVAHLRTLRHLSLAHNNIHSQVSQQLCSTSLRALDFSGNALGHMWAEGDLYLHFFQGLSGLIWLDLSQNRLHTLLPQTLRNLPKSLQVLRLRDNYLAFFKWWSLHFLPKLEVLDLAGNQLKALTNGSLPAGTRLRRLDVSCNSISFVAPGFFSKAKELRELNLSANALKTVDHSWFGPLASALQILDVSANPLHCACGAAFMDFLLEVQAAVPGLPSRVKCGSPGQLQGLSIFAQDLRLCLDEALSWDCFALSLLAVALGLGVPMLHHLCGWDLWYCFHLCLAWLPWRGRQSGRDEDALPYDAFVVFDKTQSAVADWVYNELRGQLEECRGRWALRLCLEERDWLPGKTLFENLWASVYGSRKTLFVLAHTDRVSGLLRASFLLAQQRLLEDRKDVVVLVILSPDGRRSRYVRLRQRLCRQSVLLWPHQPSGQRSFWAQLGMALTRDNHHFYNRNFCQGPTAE
How it was run: as §1

human TLR7 = biological target: T3, human TLR7 (Homo sapiens, UniProt Q9NYK1); experiment: TLR7 inhibition reporter assay (HEK-Blue cells, SEAP reporter, gardiquimod stimulation); details: HEK-Blue cells overexpressing human TLR7, SEAP reporter, gardiquimod 7.5 μM; read-out: TLR7 IC50
T3 construct: host or cells: HEK-Blue cells
T3 sequence (Q9NYK1 27-1049): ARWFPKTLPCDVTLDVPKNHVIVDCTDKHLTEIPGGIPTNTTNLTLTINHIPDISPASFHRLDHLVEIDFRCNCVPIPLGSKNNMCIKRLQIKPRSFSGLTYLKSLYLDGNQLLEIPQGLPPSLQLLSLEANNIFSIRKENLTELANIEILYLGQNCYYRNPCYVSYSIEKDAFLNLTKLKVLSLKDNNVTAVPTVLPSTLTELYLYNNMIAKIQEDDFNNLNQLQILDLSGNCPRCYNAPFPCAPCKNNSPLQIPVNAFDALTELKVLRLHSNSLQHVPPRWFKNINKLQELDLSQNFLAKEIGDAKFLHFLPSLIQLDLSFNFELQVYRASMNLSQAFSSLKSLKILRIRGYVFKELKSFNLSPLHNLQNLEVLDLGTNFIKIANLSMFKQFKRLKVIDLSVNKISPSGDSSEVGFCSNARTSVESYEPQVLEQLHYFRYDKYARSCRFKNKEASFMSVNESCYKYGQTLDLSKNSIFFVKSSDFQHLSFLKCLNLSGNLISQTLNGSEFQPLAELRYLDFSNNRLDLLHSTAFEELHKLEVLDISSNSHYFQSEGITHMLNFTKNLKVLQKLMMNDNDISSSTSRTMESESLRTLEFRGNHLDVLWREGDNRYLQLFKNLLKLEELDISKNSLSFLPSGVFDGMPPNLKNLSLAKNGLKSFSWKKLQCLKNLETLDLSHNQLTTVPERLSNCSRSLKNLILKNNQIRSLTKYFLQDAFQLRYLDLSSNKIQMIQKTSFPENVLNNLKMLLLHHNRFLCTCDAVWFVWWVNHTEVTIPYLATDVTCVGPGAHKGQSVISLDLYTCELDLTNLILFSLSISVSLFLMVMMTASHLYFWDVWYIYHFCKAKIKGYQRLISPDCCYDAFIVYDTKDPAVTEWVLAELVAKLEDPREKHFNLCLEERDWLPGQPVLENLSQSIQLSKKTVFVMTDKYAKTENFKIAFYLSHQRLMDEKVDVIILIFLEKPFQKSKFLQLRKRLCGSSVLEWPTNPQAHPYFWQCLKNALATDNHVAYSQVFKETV
How it was run: as §1

An IC50 (human TLR8) of 0.39 nM, an IC50 (human TLR9) of 2830 nM and an IC50 (human TLR7) of 0.57 nM were found for COC1CN(C2CCC(c3nc4c(C(C)C)c(-c5cn6ncnc6cc5C)[nH]c4s3)CC2)C1 (single isomer, unassigned) [Example 150, 6-isopropyl-2-(4-(3-methoxyazetidin-1-yl)cyclohexyl)-5-(7-methyl-[1,2,4]triazolo[1,5-a]pyridin-6-yl)-4H-pyrrolo[3,2-d]thiazole] in this work.
An IC50 (human TLR8) of 60 nM, an IC50 (human TLR9) of 23400 nM and an IC50 (human TLR7) of 49.2 nM were found for COC1CN(C2CCC(c3nc4c(C(C)C)c(-c5cn6ncnc6cc5C)[nH]c4s3)CC2)C1 (single isomer, unassigned) [Example 151, 6-isopropyl-2-(4-(3-methoxyazetidin-1-yl)cyclohexyl)-5-(7-methyl-[1,2,4]triazolo[1,5-a]pyridin-6-yl)-4H-pyrrolo[3,2-d]thiazole] in this work.
An IC50 (human TLR8) of 31.6 nM, an IC50 (human TLR9) of 20900 nM and an IC50 (human TLR7) of 13.7 nM were found for Cc1cc2ncnn2cc1-c1[nH]c2sc(C3CCC(NC4COC4)CC3)nc2c1C(C)C (single isomer, unassigned) [Example 152, N-(4-(6-isopropyl-5-(7-methyl-[1,2,4]triazolo[1,5-a]pyridin-6-yl)-4H-pyrrolo[3,2-d]thiazol-2-yl)cyclohexyl)oxetan-3-amine] in this work.
An IC50 (human TLR8) of 6.62 nM, an IC50 (human TLR9) of 22300 nM and an IC50 (human TLR7) of 27.8 nM were found for Cc1cc2ncnn2cc1-c1[nH]c2sc(C3CCC(NC4COC4)CC3)nc2c1C(C)C (single isomer, unassigned) [Example 153, N-(4-(6-isopropyl-5-(7-methyl-[1,2,4]triazolo[1,5-a]pyridin-6-yl)-4H-pyrrolo[3,2-d]thiazol-2-yl)cyclohexyl)oxetan-3-amine] in this work.
An IC50 (human TLR8) of 3.33 nM, an IC50 (human TLR9) of 9310 nM and an IC50 (human TLR7) of 11.9 nM were found for Cc1cc2ncnn2cc1-c1[nH]c2sc(C3CCC(N4CCCC4)CC3)nc2c1C(C)C (single isomer, unassigned) [Example 154, 6-isopropyl-5-(7-methyl-[1,2,4]triazolo[1,5-a]pyridin-6-yl)-2-(4-(pyrrolidin-1-yl)cyclohexyl)-4H-pyrrolo[3,2-d]thiazole] in this work.
For Cc1cc2ncnn2cc1-c1[nH]c2sc(C3CCC(N4CCCC4)CC3)nc2c1C(C)C (single isomer, unassigned) [Example 155, 6-isopropyl-5-(7-methyl-[1,2,4]triazolo[1,5-a]pyridin-6-yl)-2-(4-(pyrrolidin-1-yl)cyclohexyl)-4H-pyrrolo[3,2-d]thiazole], the IC50 (human TLR8) was 21.5 nM, the IC50 (human TLR9) was > 50000 nM and the IC50 (human TLR7) was 41.5 nM.
An IC50 (human TLR8) of 0.09 nM, an IC50 (human TLR9) of 10900 nM and an IC50 (human TLR7) of 1.72 nM were found for Cc1cc2ncnn2cc1-c1[nH]c2sc(C3CCC(NCC(C)(C)O)CC3)nc2c1C(C)C (single isomer, unassigned) [Example 156, 1-((4-(6-isopropyl-5-(7-methyl-[1,2,4]triazolo[1,5-a]pyridin-6-yl)-4H-pyrrolo[3,2-d]thiazol-2-yl)cyclohexyl)amino)-2-methylpropan-2-ol] in this work.
An IC50 (human TLR8) of 11.9 nM, an IC50 (human TLR9) of 16400 nM and an IC50 (human TLR7) of 37.4 nM were found for Cc1cc2ncnn2cc1-c1[nH]c2sc(C3CCC(NCC(C)(C)O)CC3)nc2c1C(C)C (single isomer, unassigned) [Example 157, 1-((4-(6-isopropyl-5-(7-methyl-[1,2,4]triazolo[1,5-a]pyridin-6-yl)-4H-pyrrolo[3,2-d]thiazol-2-yl)cyclohexyl)amino)-2-methylpropan-2-ol] in this work.
An IC50 (human TLR8) of 31 nM, an IC50 (human TLR9) of 14300 nM and an IC50 (human TLR7) of 8.95 nM were found for Cc1cc2ncnn2cc1-c1[nH]c2sc(C3CCC(N(C)C(C)C)CC3)nc2c1C(C)C (single isomer, unassigned) [Example 158, N-isopropyl-4-(6-isopropyl-5-(7-methyl-[1,2,4]triazolo[1,5-a]pyridin-6-yl)-4H-pyrrolo[3,2-d]thiazol-2-yl)-N-methylcyclohexan-1-amine] in this work.
An IC50 (human TLR8) of 4.78 nM, an IC50 (human TLR9) of 6870 nM and an IC50 (human TLR7) of 8.79 nM were found for Cc1cc2ncnn2cc1-c1[nH]c2sc(C3CCC(N(C)C(C)C)CC3)nc2c1C(C)C (single isomer, unassigned) [Example 159, N-isopropyl-4-(6-isopropyl-5-(7-methyl-[1,2,4]triazolo[1,5-a]pyridin-6-yl)-4H-pyrrolo[3,2-d]thiazol-2-yl)-N-methylcyclohexan-1-amine] in this work.
An IC50 (human TLR8) of 0.06 nM, an IC50 (human TLR9) of 5300 nM and an IC50 (human TLR7) of 0.61 nM were found for Cc1cc2ncnn2cc1-c1[nH]c2sc(C3CCC(NC4CCOCC4)CC3)nc2c1C(C)C (single isomer, unassigned) [Example 160, N-(4-(6-isopropyl-5-(7-methyl-[1,2,4]triazolo[1,5-a]pyridin-6-yl)-4H-pyrrolo[3,2-d]thiazol-2-yl)cyclohexyl) tetrahydro-2H-pyran-4-amine] in this work.
An IC50 (human TLR8) of 14.7 nM, an IC50 (human TLR9) of 17000 nM and an IC50 (human TLR7) of 18.1 nM were found for Cc1cc2ncnn2cc1-c1[nH]c2sc(C3CCC(NC4CCOCC4)CC3)nc2c1C(C)C (single isomer, unassigned) [Example 161, N-(4-(6-isopropyl-5-(7-methyl-[1,2,4]triazolo[1,5-a]pyridin-6-yl)-4H-pyrrolo[3,2-d]thiazol-2-yl)cyclohexyl) tetrahydro-2H-pyran-4-amine] in this work.

Source: US20230139171A1 (SITA Information Networking Computing UK Limited, priority 2019, published 2023)
